Data from PMC6438731, “Extrasynaptic δ‐GABAA receptors are high‐affinity muscimol receptors” (Journal of Neurochemistry, 2019).
Where two headings read alike, the source gives them in different places.

Experiments:
[1] = target: forebrain membranes of WT mice; assay: Saturation analysis of [^3H]muscimol binding, WT forebrain membranes; set-up: species or system mouse; settings: 0°C
Protocol: (§1) WT and δKO forebrain and cerebellar membranes were prepared using a modification of the method of Squires and Saederup (2000) essentially as described by Uusi‐Oukari et al. (2014). […] forebrain along with midbrain region was homogenized into 10 mM Tris‐HCl, pH 8.0 buffer containing 2 mM EDTA, using an Ultra‐Turrax T25 (Janke & Kunkel IKA labortechnik) for 20 s at 9500 rpm. The homogenates were centrifuged at 20 000 g for 10 min at +4°C and the resulting pellets were washed three times by resuspension and re‐centrifugation with 10 mM Tris‐HCl, pH 8.5 buffer containing 0.2 M NaCl, and 5 mM EDTA. The resulting pellets were then suspended in ice‐cold H2O and centrifuged. The pellets were again washed three times with Tris, pH 8.5/NaCl/EDTA as described above. The resulting pellets were finally suspended in assay buffer consisting of 50 mM Tris‐base, pH adjusted to 7.4 with citric acid, and frozen at −70°C. Before a binding experiment, the suspension was thawed, centrifuged, and suspended in assay buffer.
Saturation analysis of [^3H]muscimol to WT and δKO mouse forebrain and cerebellar membranes was performed essentially as described by Uusi‐Oukari and Korpi (1989). […] The incubations were terminated as described above.

[2] = target: forebrain membranes of WT mice; assay: [^3H]muscimol binding kinetics, WT forebrain membranes; set-up: species or system mouse
Protocol: as §1
(§2) The binding of [^3H]muscimol (5 nM) was measured in assay buffer at 22°C in a total volume of 300 μL. Triplicate technical replicates of mouse forebrain (190–215 μg protein), cerebellar (180–210 μg protein) or HEK cell (92–132 μg protein) membranes for each time point were incubated with shaking for various times (15 s–15 min) to measure association of the binding. […] Air‐dried filters were immersed in 3 mL of Optiphase HiSafe 3 scintillation fluid (Wallac, Turku, Finland) and radioactivity determined in a Wallac model 1410 liquid scintillation counter (Wallac, Turku, Finland). […]
(§3) The tubes were mixed and incubations at 22°C were terminated at various time points (30 s – 30 min) as described above. Dissociation of [^3H]muscimol from recombinant receptors in HEK cell membranes was also measured at 0–4°C (on ice) to evaluate how fast [^3H]muscimol dissociates from receptors while washing the filter with ice‐cold assay buffer during filtration.

[3] = target: forebrain membranes of δKO mice (non‐δ‐GABAARs); assay: [^3H]muscimol binding kinetics, δKO forebrain membranes; set-up: species or system mouse
Protocol: as §1
(§4) The binding of [^3H]muscimol (5 nM) was measured in assay buffer at 22°C in a total volume of 300 μL. Triplicate technical replicates of mouse forebrain (190–215 μg protein), cerebellar (180–210 μg protein) or HEK cell (92–132 μg protein) membranes for each time point were incubated with shaking for various times (15 s–15 min) to measure association of the binding. […] The incubation was terminated by filtration of the samples with a Brandel Cell Harvester (model M‐24, Gaithersburg, MD, USA) onto Whatman GF/B filters (Whatman International Ltd., Maidstone, UK). The samples were rinsed twice with 4–5 mL of ice‐cold assay buffer. Filtration and rinsing steps took a total time of ~15 s. Air‐dried filters were immersed in 3 mL of Optiphase HiSafe 3 scintillation fluid (Wallac, Turku, Finland) and radioactivity determined in a Wallac model 1410 liquid scintillation counter (Wallac, Turku, Finland). The maximal binding disintegrations per minute (DPM) values (at 15 min in association) for recombinant studies with 5 nM [^3H]muscimol were between 700 and 2500 DPMs of specific binding (background subtracted). In native membranes, the maximal DPM values were between 2500 and 3000 for WTs and 1300–1500 for δKOs.
as §3

[4] = target: cerebellar membranes of WT mice; assay: [^3H]muscimol binding kinetics, WT cerebellar membranes; set-up: species or system mouse
Protocol: as §1, §2, §3

[5] = target: T1, α1β2 recombinant GABAA receptor (Rattus norvegicus, UniProt P62813+P63138); assay: [^3H]muscimol binding kinetics, recombinant α1β2 in HEK293 membranes; settings: room temperature (22°C)
T1 construct: expressed in transfected cells; host or cells: HEK293 (ATCC CRL-1573), pRK5 plasmids, membranes
T1 sequence (P62813 28-455): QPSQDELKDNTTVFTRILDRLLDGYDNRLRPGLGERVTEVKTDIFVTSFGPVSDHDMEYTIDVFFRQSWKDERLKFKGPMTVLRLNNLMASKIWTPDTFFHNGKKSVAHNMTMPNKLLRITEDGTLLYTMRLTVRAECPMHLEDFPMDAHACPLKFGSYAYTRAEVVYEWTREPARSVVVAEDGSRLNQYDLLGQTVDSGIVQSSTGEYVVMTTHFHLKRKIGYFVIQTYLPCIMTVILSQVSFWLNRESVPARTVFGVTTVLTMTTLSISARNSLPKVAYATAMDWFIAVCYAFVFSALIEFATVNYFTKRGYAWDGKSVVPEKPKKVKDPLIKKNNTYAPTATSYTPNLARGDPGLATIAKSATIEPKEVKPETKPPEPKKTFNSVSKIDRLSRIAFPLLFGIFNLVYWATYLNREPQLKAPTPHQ
T1 sequence (P63138 26-474): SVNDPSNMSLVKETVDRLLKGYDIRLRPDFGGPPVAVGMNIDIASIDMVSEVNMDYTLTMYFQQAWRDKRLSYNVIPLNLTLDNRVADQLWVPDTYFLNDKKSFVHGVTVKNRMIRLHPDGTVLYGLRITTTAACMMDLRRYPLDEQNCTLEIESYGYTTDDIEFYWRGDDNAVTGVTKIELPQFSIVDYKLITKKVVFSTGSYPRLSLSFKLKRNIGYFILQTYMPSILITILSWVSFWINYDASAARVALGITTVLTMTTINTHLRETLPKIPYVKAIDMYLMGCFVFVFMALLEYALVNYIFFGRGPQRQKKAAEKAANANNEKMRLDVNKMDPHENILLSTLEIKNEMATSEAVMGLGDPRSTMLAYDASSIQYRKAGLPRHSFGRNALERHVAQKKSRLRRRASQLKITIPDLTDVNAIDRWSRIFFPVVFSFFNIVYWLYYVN
Excerpt: Human embryonic kidney (HEK) 293 cells (ATCC Cat# CRL‐1573; RRID: CVCL_0045; a commonly misidentified cell line by ICLAC; last authenticated by STR DNA profiling in December 2018) were transfected with rat cDNAs (α1, L08490; α6, L08495; β2, X15467; β3, X15468; γ2S, L08497; δ, L08496) in pRK5 plasmids under the control of the cytomegalovirus promoter (Uusi‐Oukari et al. 2000), using the calcium phosphate precipitation method essentially as described (Lüddens and Korpi 1997). The plasmids were used in 1 : 1 and 1 : 1 : 1 ratios for transfections containing 2 [(α1 or α6) + (β2 or β3)] or 3 [(α1 or α6) + (β2 or β3) + (γ2S or δ)] different subunits, respectively (5 μg of each plasmid DNA for a 10 cm plate). […]
The binding of [^3H]muscimol (5 nM) was measured in assay buffer at 22°C in a total volume of 300 μL. […] Air‐dried filters were immersed in 3 mL of Optiphase HiSafe 3 scintillation fluid (Wallac, Turku, Finland) and radioactivity determined in a Wallac model 1410 liquid scintillation counter (Wallac, Turku, Finland).
as §3

[6] = target: T2, α6β2γ2 recombinant GABAA receptor (Rattus norvegicus, UniProt P30191+P63138); assay: [^3H]muscimol binding kinetics, recombinant α6β2γ2 in HEK293 membranes
T2 construct: expressed in transfected cells; host or cells: HEK293 (ATCC CRL-1573), pRK5 plasmids, membranes
T2 sequence (P30191 20-453): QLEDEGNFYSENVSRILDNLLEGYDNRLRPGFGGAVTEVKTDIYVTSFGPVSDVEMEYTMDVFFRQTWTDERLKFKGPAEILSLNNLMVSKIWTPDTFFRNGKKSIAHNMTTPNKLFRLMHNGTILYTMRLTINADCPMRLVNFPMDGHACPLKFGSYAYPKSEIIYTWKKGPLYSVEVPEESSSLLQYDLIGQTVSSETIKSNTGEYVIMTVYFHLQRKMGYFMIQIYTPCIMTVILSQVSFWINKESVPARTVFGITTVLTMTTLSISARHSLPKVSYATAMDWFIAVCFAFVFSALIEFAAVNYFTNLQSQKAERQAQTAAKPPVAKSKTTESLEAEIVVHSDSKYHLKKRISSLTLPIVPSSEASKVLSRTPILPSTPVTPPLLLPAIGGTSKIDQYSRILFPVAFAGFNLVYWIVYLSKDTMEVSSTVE
T2 sequence (P63138 26-474): as the sequence (P63138 26-474) above
T2 sequence (P18508 39-466 partner): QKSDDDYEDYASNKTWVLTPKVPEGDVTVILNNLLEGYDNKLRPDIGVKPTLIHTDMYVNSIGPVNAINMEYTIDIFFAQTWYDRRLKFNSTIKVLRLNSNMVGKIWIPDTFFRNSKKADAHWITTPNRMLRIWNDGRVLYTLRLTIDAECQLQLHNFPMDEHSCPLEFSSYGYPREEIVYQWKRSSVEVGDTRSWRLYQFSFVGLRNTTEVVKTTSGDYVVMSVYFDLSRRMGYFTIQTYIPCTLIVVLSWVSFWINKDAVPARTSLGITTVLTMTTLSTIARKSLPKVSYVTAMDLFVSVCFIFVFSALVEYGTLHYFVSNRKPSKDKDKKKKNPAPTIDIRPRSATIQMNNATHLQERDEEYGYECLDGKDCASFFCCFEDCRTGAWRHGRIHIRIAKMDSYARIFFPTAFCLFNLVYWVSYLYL
Excerpt: (§5) Human embryonic kidney (HEK) 293 cells (ATCC Cat# CRL‐1573; RRID: CVCL_0045; a commonly misidentified cell line by ICLAC; last authenticated by STR DNA profiling in December 2018) were transfected with rat cDNAs (α1, L08490; α6, L08495; β2, X15467; β3, X15468; γ2S, L08497; δ, L08496) in pRK5 plasmids under the control of the cytomegalovirus promoter (Uusi‐Oukari et al. 2000), using the calcium phosphate precipitation method essentially as described (Lüddens and Korpi 1997). The plasmids were used in 1 : 1 and 1 : 1 : 1 ratios for transfections containing 2 [(α1 or α6) + (β2 or β3)] or 3 [(α1 or α6) + (β2 or β3) + (γ2S or δ)] different subunits, respectively (5 μg of each plasmid DNA for a 10 cm plate). Mock transfection was done using 5 μg pRK5 plasmid backbone. The cells were harvested 48 h after transfection. Culture medium was removed and the cells were detached from the plates by pipetting in ice‐cold assay buffer containing 2 mM EDTA. The cells were homogenized (Ultra Turrax, 20 s at 9500 rpm), the homogenates centrifuged at 20 000 g for 10 min at +4°C, and washed once with the same buffer. The homogenates were finally suspended in assay buffer (1 mL/plate) and either used directly to binding assays or stored frozen at −70°C.
as §4, with “In native membranes, the maximal DPM values were between 2500 and 3000 for WTs and 1300–1500 for δKOs.” left out
as §3

[7] = target: T3, α6β2δ recombinant GABAA receptor (Rattus norvegicus, UniProt P30191+P63138); assay: [^3H]muscimol binding kinetics, recombinant α6β2δ in HEK293 membranes
T3 construct: expressed in transfected cells; host or cells: HEK293 (ATCC CRL-1573), pRK5 plasmids, membranes
T3 sequence (P30191 20-453): as the sequence (P30191 20-453) above
T3 sequence (P63138 26-474): as the sequence (P63138 26-474) above
T3 sequence (P18506 25-449 partner): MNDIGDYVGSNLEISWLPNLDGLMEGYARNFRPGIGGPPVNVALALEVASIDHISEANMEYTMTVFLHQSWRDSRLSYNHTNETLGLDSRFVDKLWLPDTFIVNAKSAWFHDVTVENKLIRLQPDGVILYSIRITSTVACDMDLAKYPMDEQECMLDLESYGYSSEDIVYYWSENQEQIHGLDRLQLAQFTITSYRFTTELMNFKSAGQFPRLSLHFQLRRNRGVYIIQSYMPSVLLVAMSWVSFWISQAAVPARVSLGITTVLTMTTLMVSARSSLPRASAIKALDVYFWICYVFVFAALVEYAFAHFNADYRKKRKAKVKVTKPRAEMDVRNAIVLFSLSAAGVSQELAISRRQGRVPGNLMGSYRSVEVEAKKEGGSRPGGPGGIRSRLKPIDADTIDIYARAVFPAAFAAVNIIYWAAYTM
Excerpt: as §5, §4, §3

[8] = room temperature (22°C), 5 nM [^3H]muscimol

NCc1cc(=O)[nH]o1 [[^3H]muscimol] [[Methylene‐^3H]muscimol]
Apparent pKD [1]: 8.02 ± 0.06
Kd ([2]; 22°C, K D = koff/kon): 1.6 nM
k off ([2]; room temperature (22°C)): 0.00883 ± 0.00033 s⁻¹
k on [2, 8]: 3.3 ± 0.2 × 10^8 M^−1 × min^−1
Kd ([3]; calculated from k on and k off, read-out: apparent [^3H]muscimol affinities (K D) for non‐δ‐GABAARs): ~1 nM
Kd ([3]; forebrain membranes, 22°C, K D = koff/kon, read-out: K D): 1.1 nM
k off ([3]; forebrain membranes, room temperature (22°C)): 1.67 ± 0.15 ^*** min^−1
k on ([3]; forebrain membranes, room temperature (22°C), 5 nM [^3H]muscimol): 15 ± 3.1 × 10^8 ^** M^−1 × min^−1
Kd ([4]; 22°C, K D = koff/kon): 1.7 nM
k off ([4]; room temperature (22°C)): 0.00783 ± 0.00233 s⁻¹
k on [4, 8]: 2.8 ± 0.2 × 10^8 M^−1 × min^−1
k off [5]: 0.49 ± 0.07 ^### min^−1
Kd ([6]; 22°C, K D = koff/kon): 1.6 nM
k off ([6]; +4 °C): 0.086 ± 0.010 ^, ^** min^−1
k off ([6]; room temperature (22°C)): 0.98 ± 0.02 ^### ^, ^††† min^−1
k on [6, 8]: 6.3 ± 0.5 × 10^8, ^### ^, ^††† M^−1 × min^−1
Kd ([7]; α6β2δ in HEK293 membranes, 22°C, K D = koff/kon): 1.3 nM
k off ([7]; α6β2δ in HEK293 membranes, +4 °C): 0.015 ± 0.003 ^*** min^−1
k off ([7]; α6β2δ in HEK293 membranes, room temperature (22°C)): 0.13 ± 0.03 ^### min^−1
k on ([7]; α6β2δ in HEK293 membranes, room temperature (22°C), 5 nM [^3H]muscimol): 1.0 ± 0.1 × 10^8, ^### M^−1 × min^−1
association rate constant kon lower when compared to γ2‐GABAARs ([7]; α6β2δ vs α1β2γ2 and α6β2γ2, 22°C): 6.3–11 fold
[^3H]muscimol still remaining bound ([7]; α6β2δ, 0°C, 30 min after start of the dissociation): 70%
